This passage reports IC50 and Ratio results from ChEMBL document CHEMBL2406955, “Synthesis and cytotoxic activities of novel hybrid 2-phenyl-3-alkylbenzofuran and imidazole/triazole compounds” (Bioorg Med Chem Lett, 2013).

The test system of test [1] is SW480. The test is described as follows: Cytotoxicity against human SW480 cells after 48 hrs by MTT assay. The class given is functional, cell-based. The conditions noted are these: SW480, 48 h.
Test [2] relates to MCF7. The test is described as follows: Cytotoxicity against human MCF7 cells after 48 hrs by MTT assay. The class given is functional, cell-based. The conditions noted are these: MCF7, 48 h.
In test [3] the test system is SMMC-7721. The test can be described thus: Cytotoxicity against human SMMC7721 cells after 48 hrs by MTT assay. The class given is functional, cell-based. The settings on record: SMMC-7721, 48 h.
Test [4] has as its system HL-60. The test can be described thus: Cytotoxicity against human HL60 cells after 48 hrs by MTT assay. The class given is functional, cell-based. The settings on record: HL-60, 48 h.
The test system of test [5] is A549. The test can be described thus: Cytotoxicity against human A549 cells after 48 hrs by MTT assay. The class given is functional, cell-based. The settings on record: A549, 48 h.
The target of test [6] is Serine/threonine-protein kinase mTOR (Homo sapiens) (UniProt P42345). The test is described as follows: Inhibition of mTOR (unknown origin) assessed as ratio of cytoplasmic to nuclear level of eukaryotic initiation factor 4E.

Regarding `CCc1n(Cc2c(-c3ccccc3)oc3ccccc23)cc[n+]1CC(=O)c1ccc(Br)cc1`, the IC50 in test [1] was 3.58 µM; in test [2] it was 2.89 µM; in test [3] it was 6.07 µM; in test [4], 0.72 µM; in test [5], 12.8 µM.
Consider `CCCC[n+]1cnn(Cc2c(-c3ccccc3)oc3ccccc23)c1`, for which the half-maximal inhibitory concentration (IC50) in test [1], in test [2], in test [3], in test [4] and in test [5] was greater than 40 µM each time.
`O=C(C[n+]1cnn(Cc2c(-c3ccccc3)oc3ccccc23)c1)c1ccc(Br)cc1`: the IC50 in test [1] was determined as 14.6 µM; in test [2], 10.4 µM; in test [3] it was 10.8 µM; in test [4] it was 9.71 µM; in test [5], 14.6 µM.
Consider `c1ccc(-c2oc3ccccc3c2Cn2cnc3ccccc32)cc1`, for which the 50% inhibitory concentration (IC50) in test [1], in test [2], in test [3], in test [4] and in test [5] was greater than 40 µM throughout.
Regarding `CCc1n(Cc2c(-c3ccccc3)oc3ccccc23)cc[n+]1CC(=O)c1ccccc1`, the IC50 in test [1] is 11.9 µM; in test [2] it was 7.53 µM; in test [3], 5.01 µM; in test [4], 2.09 µM; in test [5], 12.5 µM.
The like results for `O=C(C[n+]1cn(Cc2c(-c3ccccc3)oc3ccccc23)c2ccccc21)c1ccc(Br)cc1` were, in that order, 4.37 µM, 4.08 µM, 2.94 µM, 2.11 µM and 5.25 µM.
As to `CCc1n(Cc2c(-c3ccccc3)oc3ccccc23)cc[n+]1CC(=O)c1ccc(O)cc1`, the IC50 in test [1] was greater than 40 µM; in test [2], 17.4 µM; in test [3], 13.1 µM; in test [4], 13.2 µM; in test [5] it was 27.1 µM.
The like results for `COc1ccc(C(=O)C[n+]2cnn(Cc3c(-c4ccccc4)oc4ccccc34)c2)cc1` were, in that order, 17.2 µM, 14.9 µM, 5.76 µM, 3.22 µM and 13.7 µM.
As for `CCc1n(Cc2c(-c3ccccc3)oc3ccccc23)cc[n+]1CC(=O)c1ccc2ccccc2c1`, the IC50 in test [1] was found to be 3.14 µM; in test [2], 3.03 µM; in test [3], 2.3 µM; in test [4], 0.61 µM; in test [5], 5.35 µM. The Ratio in test [6] turned out to be 1.55.
For the compound `O=C(C[n+]1cn(Cc2c(-c3ccccc3)oc3ccccc23)c2ccccc21)c1ccc(O)cc1`, the IC50 in test [1] was found to be 18.2 µM; in test [2], 16.2 µM; in test [3], 20.7 µM; in test [4] it was 13 µM; in test [5], 34 µM.
For the compound `O=C(C[n+]1ccn(Cc2c(-c3ccccc3)oc3ccccc23)c1)c1ccccc1`, the IC50 in test [1] is 15.5 µM; in test [2], 15.5 µM; in test [3] it was 9.83 µM; in test [4], 2.49 µM; in test [5], greater than 40 µM.
Regarding `O=C(C[n+]1cn(Cc2c(-c3ccccc3)oc3ccccc23)c2ccccc21)c1ccccc1`, the IC50 in test [1] was found to be 3.44 µM; in test [2], 3.92 µM; in test [3] it was 8.46 µM; in test [4] it was 1.97 µM; in test [5], 12.2 µM.
With `O=C(C[n+]1cnn(Cc2c(-c3ccccc3)oc3ccccc23)c1)c1ccc(F)cc1`, the half-inhibitory concentration (IC50) in test [1] was found to be 16.8 µM; in test [2], 16.4 µM; in test [3], 9.21 µM; in test [4] it was 9.67 µM; in test [5], 15.1 µM.
The like results for `O=C(c1ccccc1)C(c1ccccc1)[n+]1cnn(Cc2c(-c3ccccc3)oc3ccccc23)c1` (configuration not stated) were, in that order, 20.9 µM, 20.7 µM, 16.1 µM, 15.9 µM and 16.8 µM.
`Brc1ccccc1C[n+]1cnn(Cc2c(-c3ccccc3)oc3ccccc23)c1`: the IC50 was 18.9 µM in test [1]; 16.3 µM in test [2]; 21.9 µM in test [3]; 9 µM in test [4]; 33.1 µM in test [5].
The like results for `O=C(C[n+]1ccn(Cc2c(-c3ccccc3)oc3ccccc23)c1)c1ccc(F)cc1` were, in that order, 15.5 µM, 14.6 µM, 13.4 µM, 2.98 µM and greater than 40 µM.
As for `O=C(C[n+]1cn(Cc2c(-c3ccccc3)oc3ccccc23)c2ccccc21)c1ccc2ccccc2c1`, the IC50 was determined as 3.61 µM in test [1]; 3.24 µM in test [2]; 2.63 µM in test [3]; 2.34 µM in test [4]; 4.5 µM in test [5].
Consider `O=C(C[n+]1cnn(Cc2c(-c3ccccc3)oc3ccccc23)c1)c1ccc2ccccc2c1`, for which the IC50 is 2.89 µM in test [1]; 3.11 µM in test [2]; 1.86 µM in test [3]; 2.33 µM in test [4]; 2.06 µM in test [5]. Moreover, the Ratio in test [6] was 0.96.
Regarding `O=C(C[n+]1cnn(Cc2c(-c3ccccc3)oc3ccccc23)c1)c1ccccc1`, the IC50 in test [1] turned out to be 17.1 µM; in test [2] it was 14.7 µM; in test [3], 5.76 µM; in test [4], 3.51 µM; in test [5] it was 13.7 µM. Moreover, the Ratio in test [6] amounted to 1.11.
Turning to `c1ccc(C[n+]2cn(Cc3c(-c4ccccc4)oc4ccccc34)c3ccccc32)cc1`, the IC50 in test [1] was 3.26 µM; in test [2], 3.49 µM; in test [3], 4.81 µM; in test [4], 1.96 µM; in test [5], 7.09 µM. Besides, in test [6], the Ratio turned out to be 1.54.
Consider `O=C(C[n+]1cnn(Cc2c(-c3ccccc3)oc3ccccc23)c1)c1ccc(O)cc1`, for which the half-maximal inhibitory concentration (IC50) in test [1], in test [2], in test [3], in test [4] and in test [5] was greater than 40 µM throughout.
With `c1ccc(C[n+]2cnn(Cc3c(-c4ccccc4)oc4ccccc34)c2)cc1`, the IC50 in test [1], in test [2], in test [3], in test [4] and in test [5] was greater than 40 µM in each case.
As to `c1ccc(-c2oc3ccccc3c2Cn2ccnc2)cc1`, the IC50 in test [1], in test [2], in test [3], in test [4] and in test [5] was greater than 40 µM throughout.
As to `O=C(C[n+]1ccn(Cc2c(-c3ccccc3)oc3ccccc23)c1)c1ccc2ccccc2c1`, the IC50 in test [1] was 3.48 µM; in test [2] it was 3.68 µM; in test [3] it was 9.42 µM; in test [4], 2.06 µM; in test [5], 14 µM.
In the case of `O=C(C[n+]1cn(Cc2c(-c3ccccc3)oc3ccccc23)c2ccccc21)c1ccc(F)cc1`, the IC50 was determined as 3.29 µM in test [1]; 3.13 µM in test [2]; 9.41 µM in test [3]; 2.03 µM in test [4]; 11.8 µM in test [5].
Take `COc1ccc(C(=O)C[n+]2cn(Cc3c(-c4ccccc4)oc4ccccc34)c3ccccc32)cc1`: the IC50 is greater than 40 µM in test [1]; 23.8 µM in test [2]; 16.6 µM in test [3]; 0.61 µM in test [4]; 9.12 µM in test [5]. Besides, in test [6], the Ratio was determined as 1.32.
As for `CO[C@H]1C[C@@H]2CC[C@@H](C)[C@@](O)(O2)C(=O)C(=O)N2CCCC[C@H]2C(=O)O[C@H]([C@H](C)C[C@@H]2CC[C@@H](O)[C@H](OC)C2)CC(=O)[C@H](C)/C=C(\C)[C@@H](O)[C@@H](OC)C(=O)[C@H](C)C[C@H](C)/C=C/C=C/C=C/1C`, the Ratio in test [6] amounted to 1.59.
On to `Brc1ccccc1C[n+]1ccn(Cc2c(-c3ccccc3)oc3ccccc23)c1`, for which the concentration for half-maximal inhibition (IC50) in test [1] is 10.3 µM; in test [2], 5.58 µM; in test [3], 6.61 µM; in test [4] it was 1.86 µM; in test [5], 11.2 µM.
Turning to `O=C(C[n+]1ccn(Cc2c(-c3ccccc3)oc3ccccc23)c1)c1ccc(Br)cc1`, the IC50 in test [1] amounted to 3.36 µM; in test [2], 3.65 µM; in test [3] it was 17.8 µM; in test [4], 1.57 µM; in test [5], 13.8 µM.
The like results for `c1ccc(-c2oc3ccccc3c2Cn2cncn2)cc1` were, in that order, greater than 40 µM, greater than 40 µM, greater than 40 µM, greater than 40 µM and greater than 40 µM.
As to `CCc1n(Cc2c(-c3ccccc3)oc3ccccc23)cc[n+]1CC(=O)c1ccc(F)cc1`, the half-inhibitory concentration (IC50) in test [1] stood at 11.3 µM; in test [2], 5.03 µM; in test [3], 8.13 µM; in test [4], 0.99 µM; in test [5] it was 14.6 µM.
The like results for `CCc1nccn1Cc1c(-c2ccccc2)oc2ccccc12` were, in that order, greater than 40 µM, greater than 40 µM, greater than 40 µM, greater than 40 µM and greater than 40 µM.
Taken in the same sequence, the figures for `CCc1n(Cc2c(-c3ccccc3)oc3ccccc23)cc[n+]1CC(=O)c1ccc(OC)cc1` were 5.69 µM, 3.17 µM, 11.8 µM, 0.58 µM and 12.9 µM.
The like results for `O=C(C[n+]1ccn(Cc2c(-c3ccccc3)oc3ccccc23)c1)c1ccc(O)cc1` were, in that order, greater than 40 µM, greater than 40 µM, greater than 40 µM, greater than 40 µM and greater than 40 µM.
Consider `COc1ccc(C(=O)C[n+]2ccn(Cc3c(-c4ccccc4)oc4ccccc34)c2)cc1`, for which the IC50 in test [1] was found to be 11.9 µM; in test [2], 10.3 µM; in test [3], 16.5 µM; in test [4], 2.28 µM; in test [5], 16.3 µM. Further, the Ratio in test [6] was determined as 1.12.
